Earlier results, collected in patent US20030040459A1, “Cleaning compositions” (Unilever Home & Pesonal Care USA, priority 2001, published 2003).

Details: for Water Solubility (g/100 g): at 20° C.

| SMILES | Water Solubility (g/100 g) | Water Solubility (grams/100 grams water) (grams of solid to form a saturated solution in 100 grams of deionised water at 20° C.) |
| --- | --- | --- |
| O=BO[O-].[Na+] [Sodium perborate anhydrous] | 3.7 |  |
| O=P(O)(O)OP(=O)(O)OP(=O)(O)O [Sodium tripolyphosphate anhydrous] | 15 |  |
| NC(N)=O [Urea] |  | >100 |
